Source: ChEMBL document CHEMBL5335767, “Synthesis and study of new siderophore analog-ciprofloxacin conjugates with antibiotic activities against Pseudomonas aeruginosa and Burkholderia spp” (Eur J Med Chem, 2023)
Converted amounts (≈) assume the structure as drawn.

Legend:
Pseudomonas aeruginosa [1] = test: Antibacterial activity against Pseudomonas aeruginosa PAD07 under 1 uM FeCl3 medium by CLSI protocol based microdilution method; assay type: functional
[2] = test system: Burkholderia thailandensis; test: Antibacterial activity against Burkholderia thailandensis E264 under muller hinton medium by CLSI protocol based microdilution method; assay type: functional
[3] = test system: Burkholderia pseudomallei; test: Antibacterial activity against Burkholderia pseudomallei BPS2020IRBA002 under muller hinton medium by CLSI protocol based microdilution method; assay type: functional
[4] = test system: Burkholderia pseudomallei; test: Antibacterial activity against Burkholderia pseudomallei BPS2020IRBA002 under 1 uM FeCl3 medium by CLSI protocol based microdilution method; assay type: functional
Pseudomonas aeruginosa [5] = test: Antibacterial activity against Pseudomonas aeruginosa PAO1 under muller hinton medium by CLSI protocol based microdilution method; assay type: functional
[6] = test system: Burkholderia pseudomallei; test: Antibacterial activity against Burkholderia pseudomallei BPS2020IRBA001 under succinate minimum medium by CLSI protocol based microdilution method; assay type: functional
[7] = test system: Burkholderia pseudomallei; test: Antibacterial activity against Burkholderia pseudomallei BPS2020IRBA001 under muller hinton medium by CLSI protocol based microdilution method; assay type: functional
[8] = test system: Burkholderia pseudomallei; test: Antibacterial activity against Burkholderia pseudomallei BPS2020IRBA003 under succinate minimum medium by CLSI protocol based microdilution method; assay type: functional
[9] = Antibacterial activity against Burkholderia pseudomallei BPS2020IRBA005 under 1 uM FeCl3 medium by CLSI protocol based microdilution method; assay type: functional; settings: Burkholderia thailandensis
[10] = test system: Burkholderia pseudomallei; test: Antibacterial activity against Burkholderia pseudomallei BPS2020IRBA002 under succinate minimum medium by CLSI protocol based microdilution method; assay type: functional
[11] = test system: Burkholderia thailandensis; test: Antibacterial activity against Burkholderia thailandensis E264TS32C10 under succinate minimum medium by CLSI protocol based microdilution method; assay type: functional
[12] = test system: Burkholderia pseudomallei; test: Antibacterial activity against Burkholderia pseudomallei BPS2020IRBA005 under succinate minimum medium by CLSI protocol based microdilution method; assay type: functional
[13] = test system: Burkholderia thailandensis; test: Antibacterial activity against Burkholderia thailandensis E264TS32C47 under 1 uM FeCl3 medium by CLSI protocol based microdilution method; assay type: functional
Pseudomonas aeruginosa [14] = test: Antibacterial activity against Pseudomonas aeruginosa PAO1 under 1 uM FeCl3 medium by CLSI protocol based microdilution method; assay type: functional
Pseudomonas aeruginosa [15] = test: Antibacterial activity against Pseudomonas aeruginosa PAD07 under succinate minimum medium by CLSI protocol based microdilution method; assay type: functional
[16] = test system: Burkholderia thailandensis; test: Antibacterial activity against Burkholderia thailandensis E264TS32C12 under muller hinton medium by CLSI protocol based microdilution method; assay type: functional
[17] = test system: Burkholderia pseudomallei; test: Antibacterial activity against Burkholderia pseudomallei BPS2020IRBA005 under muller hinton medium by CLSI protocol based microdilution method; assay type: functional
Pseudomonas aeruginosa [18] = test: Antibacterial activity against Pseudomonas aeruginosa AM85 under succinate minimum medium by CLSI protocol based microdilution method; assay type: functional
[19] = test system: Burkholderia pseudomallei; test: Antibacterial activity against Burkholderia pseudomallei K96243 under succinate minimum medium by CLSI protocol based microdilution method; assay type: functional
[20] = test system: Burkholderia thailandensis; test: Antibacterial activity against Burkholderia thailandensis E264TS32C47 under succinate minimum medium by CLSI protocol based microdilution method; assay type: functional
[21] = test system: Burkholderia pseudomallei; test: Antibacterial activity against Burkholderia pseudomallei K96243 under muller hinton medium by CLSI protocol based microdilution method; assay type: functional
[22] = test system: Burkholderia thailandensis; test: Antibacterial activity against Burkholderia thailandensis E264TS32C10 under muller hinton medium by CLSI protocol based microdilution method; assay type: functional
[23] = test system: Burkholderia pseudomallei; test: Antibacterial activity against Burkholderia pseudomallei BPS2020IRBA001 under 1 uM FeCl3 medium by CLSI protocol based microdilution method; assay type: functional
Pseudomonas aeruginosa [24] = test: Antibacterial activity against Pseudomonas aeruginosa PAO1 under succinate minimum medium by CLSI protocol based microdilution method; assay type: functional
[25] = test system: Burkholderia thailandensis; test: Antibacterial activity against Burkholderia thailandensis E264TS32C10 under 1 uM FeCl3 medium by CLSI protocol based microdilution method; assay type: functional
[26] = test system: Burkholderia thailandensis; test: Antibacterial activity against Burkholderia thailandensis E264TS32C12 under succinate minimum medium by CLSI protocol based microdilution method; assay type: functional
Pseudomonas aeruginosa [27] = test: Antibacterial activity against Pseudomonas aeruginosa PAD07 under muller hinton medium by CLSI protocol based microdilution method; assay type: functional
[28] = test system: Burkholderia thailandensis; test: Antibacterial activity against Burkholderia thailandensis E264TS32C47 under muller hinton medium by CLSI protocol based microdilution method; assay type: functional
[29] = test system: Burkholderia pseudomallei; test: Antibacterial activity against Burkholderia pseudomallei K96243 under 1 uM FeCl3 medium by CLSI protocol based microdilution method; assay type: functional
HepG2 [30] = test: Cytotoxicity against human HepG2 cells at 23 ug/ml after 48 hrs by CellTiter-Glo luminescent cell viability assay; assay type: toxicity, cell-based; settings: hepg2, 48 h, dose 23 µg/ml
[31] = test system: Burkholderia thailandensis; test: Antibacterial activity against Burkholderia thailandensis E264 under 1 uM FeCl3 medium by CLSI protocol based microdilution method; assay type: functional
[32] = test system: Burkholderia pseudomallei; test: Antibacterial activity against Burkholderia pseudomallei BPS2020IRBA003 under muller hinton medium by CLSI protocol based microdilution method; assay type: functional
[33] = test system: Burkholderia pseudomallei; test: Antibacterial activity against Burkholderia pseudomallei BPS2020IRBA003 under 1 uM FeCl3 medium by CLSI protocol based microdilution method; assay type: functional
Pseudomonas aeruginosa [34] = test: Antibacterial activity against Pseudomonas aeruginosa AM85 under 1 uM FeCl3 medium by CLSI protocol based microdilution method; assay type: functional
[35] = test system: Burkholderia thailandensis; test: Antibacterial activity against Burkholderia thailandensis E264 under succinate minimum medium by CLSI protocol based microdilution method; assay type: functional
[36] = test system: Burkholderia pseudomallei; test: Antibacterial activity against Burkholderia pseudomallei BPS2020IRBA004 under muller hinton medium by CLSI protocol based microdilution method; assay type: functional
Pseudomonas aeruginosa [37] = test: Antibacterial activity against Pseudomonas aeruginosa AM85 under muller hinton medium by CLSI protocol based microdilution method; assay type: functional
[38] = test system: Burkholderia thailandensis; test: Antibacterial activity against Burkholderia thailandensis E264TS32C12 under 1 uM FeCl3 medium by CLSI protocol based microdilution method; assay type: functional
HepG2 [39] = test: Cytotoxicity against human HepG2 cells at 25 ug/ml after 48 hrs by CellTiter-Glo luminescent cell viability assay; assay type: toxicity, cell-based; settings: hepg2, 48 h, dose 25 µg/ml

| Compound | MIC (Pseudomonas aeruginosa [1]) [mg/L] | MIC [2] [mg/L] | MIC [3] [mg/L] | MIC [4] [mg/L] | MIC (Pseudomonas aeruginosa [5]) [mg/L] | MIC [6] [mg/L] | MIC [7] [mg/L] | MIC [8] [mg/L] | MIC [9] [mg/L] | MIC [10] [mg/L] | MIC [11] [mg/L] | MIC [12] [mg/L] | MIC [13] [mg/L] | MIC (Pseudomonas aeruginosa [14]) [mg/L] | MIC (Pseudomonas aeruginosa [15]) [mg/L] | MIC [16] [mg/L] | MIC [17] [mg/L] | MIC (Pseudomonas aeruginosa [18]) [mg/L] | MIC [19] [mg/L] | MIC [20] [mg/L] | other results |
| --- | --- | --- | --- | --- | --- | --- | --- | --- | --- | --- | --- | --- | --- | --- | --- | --- | --- | --- | --- | --- | --- |
| O=C(O)c1cn(C2CC2)c2cc(N3CCN(C(=O)c4ccc(O)c(O)c4)CC3)c(F)cc2c1=O | 8 (≈ 17.1 µM) | 128 (≈ 274 µM) | > 128 | > 128 | 8 (≈ 17.1 µM) | 128 (≈ 274 µM) | > 128 | 128 (≈ 274 µM) | > 128 | > 128 | > 128 | > 128 | > 128 | 8 (≈ 17.1 µM) | 8 (≈ 17.1 µM) | > 128 | > 128 | 128 (≈ 274 µM) | 64 (≈ 137 µM) | > 128 | MIC [21]: 64 mg/L (≈ 137 µM); MIC [22]: > 128 mg/L; MIC [23]: 128 mg/L (≈ 274 µM); MIC (Pseudomonas aeruginosa [24]): 8 mg/L (≈ 17.1 µM); MIC [25]: > 128 mg/L; MIC [26]: > 128 mg/L; MIC (Pseudomonas aeruginosa [27]): 8 mg/L (≈ 17.1 µM); MIC [28]: > 128 mg/L; MIC [29]: 64 mg/L (≈ 137 µM); Activity (HepG2 [30]): Non-Toxic; MIC [31]: 128 mg/L (≈ 274 µM); MIC [32]: 128 mg/L (≈ 274 µM); MIC [33]: 128 mg/L (≈ 274 µM); MIC (Pseudomonas aeruginosa [34]): > 128 mg/L; MIC [35]: 64 mg/L (≈ 137 µM); MIC [36]: 128 mg/L (≈ 274 µM); MIC (Pseudomonas aeruginosa [37]): > 128 mg/L; MIC [38]: > 128 mg/L |
| O=C(O)c1cn(C2CC2)c2cc(N3CCN(C(=O)c4cc(=O)c(O)c[nH]4)CC3)c(F)cc2c1=O | 16 (≈ 34.2 µM) | > 128 | > 128 | > 128 | 32 (≈ 68.3 µM) | > 128 | > 128 | > 128 | > 128 | > 128 | > 128 | > 128 | > 128 | 32 (≈ 68.3 µM) | 2 (≈ 4.27 µM) | > 128 | > 128 | > 128 | > 128 | > 128 | MIC [21]: > 128 mg/L; MIC [22]: 32 mg/L (≈ 68.3 µM); MIC [23]: > 128 mg/L; MIC (Pseudomonas aeruginosa [24]): 32 mg/L (≈ 68.3 µM); MIC [25]: > 128 mg/L; MIC [26]: > 1.8 mg/L; MIC (Pseudomonas aeruginosa [27]): 32 mg/L (≈ 68.3 µM); MIC [28]: > 128 mg/L; MIC [29]: > 128 mg/L; Activity (HepG2 [30]): Non-Toxic; MIC [31]: > 128 mg/L; MIC [32]: > 128 mg/L; MIC [33]: > 128 mg/L; MIC (Pseudomonas aeruginosa [34]): > 128 mg/L; MIC [35]: > 128 mg/L; MIC [36]: > 128 mg/L; MIC (Pseudomonas aeruginosa [37]): > 128 mg/L; MIC [38]: > 128 mg/L |
| O=C(O)c1cn(C2CC2)c2cc(N3CCN(C(=O)c4ccc(O)c(O)c4Cl)CC3)c(F)cc2c1=O | 16 (≈ 31.9 µM) | 128 (≈ 255 µM) | > 128 | > 128 | 32 (≈ 63.8 µM) | 128 (≈ 255 µM) | > 128 | 128 (≈ 255 µM) | > 128 | > 128 | > 128 | > 128 | 128 (≈ 255 µM) | 16 (≈ 31.9 µM) | 1 (≈ 1.99 µM) | > 128 | > 128 | > 128 | 32 (≈ 63.8 µM) | 128 (≈ 255 µM) | MIC [21]: 64 mg/L (≈ 128 µM); MIC [22]: > 128 mg/L; MIC [23]: 128 mg/L (≈ 255 µM); MIC (Pseudomonas aeruginosa [24]): 16 mg/L (≈ 31.9 µM); MIC [25]: > 128 mg/L; MIC [26]: 128 mg/L (≈ 255 µM); MIC (Pseudomonas aeruginosa [27]): 32 mg/L (≈ 63.8 µM); MIC [28]: 128 mg/L (≈ 255 µM); MIC [29]: 16 mg/L (≈ 31.9 µM); Activity (HepG2 [39]): Non-Toxic; MIC [31]: 64 mg/L (≈ 128 µM); MIC [32]: 128 mg/L (≈ 255 µM); MIC [33]: > 128 mg/L; MIC (Pseudomonas aeruginosa [34]): > 128 mg/L; MIC [35]: 128 mg/L (≈ 255 µM); MIC [36]: > 128 mg/L; MIC (Pseudomonas aeruginosa [37]): > 128 mg/L; MIC [38]: 128 mg/L (≈ 255 µM) |
